The text below walks through data of patent publication US11566022B2, “3-(5-methoxy-1-oxoisoindolin-2-yl)piperidine-2,6-dione derivatives and uses thereof” (NOVARTIS AG, priority 2019, dated 2023).

The experiment deals with HiBit-WIZ fusion protein (Homo sapiens, UniProt O95785+Q96SW2). As to the kind of experiment: Quantification of WIZ protein levels in HiBit tag fusion protein assay (WIZ HiBit assay in 293T cells). Format: cell-based. Further details: Dmax: dose or concentration left out as unconfirmed. The note with it: for Dmax / remaining activity at up to 25 µM: HEK-293T; for Dmax / % degradation of WIZ (100-Amax): 100 minus Amax; for Dmax / remaining activity at up to 25 µM / % degradation of WIZ (100-Amax) / WIZ Amax: 293T cells; for Dmax: read-out: % degradation of WIZ (100-Amax); for remaining activity at up to 25 µM / WIZ Amax: DMSO-normalized, curve-fitted percentage of WIZ-HiBit remaining at 25 uM; for remaining activity at up to 25 µM: read-out: WIZ Amax; for DC50: WIZ HiBit assay in 293T cells, 10-point, 5-fold dose response, highest concentration 25 μM, about 18 hours, read-out: WIZ AC50; for % degradation of WIZ (100-Amax): at 25 uM. For orientation: With HiBiT, luminescence reflects the tagged protein that the partner subunit can reach.
HiBit-WIZ fusion protein, sequence (O95785 whole entry, the tested form may be a part): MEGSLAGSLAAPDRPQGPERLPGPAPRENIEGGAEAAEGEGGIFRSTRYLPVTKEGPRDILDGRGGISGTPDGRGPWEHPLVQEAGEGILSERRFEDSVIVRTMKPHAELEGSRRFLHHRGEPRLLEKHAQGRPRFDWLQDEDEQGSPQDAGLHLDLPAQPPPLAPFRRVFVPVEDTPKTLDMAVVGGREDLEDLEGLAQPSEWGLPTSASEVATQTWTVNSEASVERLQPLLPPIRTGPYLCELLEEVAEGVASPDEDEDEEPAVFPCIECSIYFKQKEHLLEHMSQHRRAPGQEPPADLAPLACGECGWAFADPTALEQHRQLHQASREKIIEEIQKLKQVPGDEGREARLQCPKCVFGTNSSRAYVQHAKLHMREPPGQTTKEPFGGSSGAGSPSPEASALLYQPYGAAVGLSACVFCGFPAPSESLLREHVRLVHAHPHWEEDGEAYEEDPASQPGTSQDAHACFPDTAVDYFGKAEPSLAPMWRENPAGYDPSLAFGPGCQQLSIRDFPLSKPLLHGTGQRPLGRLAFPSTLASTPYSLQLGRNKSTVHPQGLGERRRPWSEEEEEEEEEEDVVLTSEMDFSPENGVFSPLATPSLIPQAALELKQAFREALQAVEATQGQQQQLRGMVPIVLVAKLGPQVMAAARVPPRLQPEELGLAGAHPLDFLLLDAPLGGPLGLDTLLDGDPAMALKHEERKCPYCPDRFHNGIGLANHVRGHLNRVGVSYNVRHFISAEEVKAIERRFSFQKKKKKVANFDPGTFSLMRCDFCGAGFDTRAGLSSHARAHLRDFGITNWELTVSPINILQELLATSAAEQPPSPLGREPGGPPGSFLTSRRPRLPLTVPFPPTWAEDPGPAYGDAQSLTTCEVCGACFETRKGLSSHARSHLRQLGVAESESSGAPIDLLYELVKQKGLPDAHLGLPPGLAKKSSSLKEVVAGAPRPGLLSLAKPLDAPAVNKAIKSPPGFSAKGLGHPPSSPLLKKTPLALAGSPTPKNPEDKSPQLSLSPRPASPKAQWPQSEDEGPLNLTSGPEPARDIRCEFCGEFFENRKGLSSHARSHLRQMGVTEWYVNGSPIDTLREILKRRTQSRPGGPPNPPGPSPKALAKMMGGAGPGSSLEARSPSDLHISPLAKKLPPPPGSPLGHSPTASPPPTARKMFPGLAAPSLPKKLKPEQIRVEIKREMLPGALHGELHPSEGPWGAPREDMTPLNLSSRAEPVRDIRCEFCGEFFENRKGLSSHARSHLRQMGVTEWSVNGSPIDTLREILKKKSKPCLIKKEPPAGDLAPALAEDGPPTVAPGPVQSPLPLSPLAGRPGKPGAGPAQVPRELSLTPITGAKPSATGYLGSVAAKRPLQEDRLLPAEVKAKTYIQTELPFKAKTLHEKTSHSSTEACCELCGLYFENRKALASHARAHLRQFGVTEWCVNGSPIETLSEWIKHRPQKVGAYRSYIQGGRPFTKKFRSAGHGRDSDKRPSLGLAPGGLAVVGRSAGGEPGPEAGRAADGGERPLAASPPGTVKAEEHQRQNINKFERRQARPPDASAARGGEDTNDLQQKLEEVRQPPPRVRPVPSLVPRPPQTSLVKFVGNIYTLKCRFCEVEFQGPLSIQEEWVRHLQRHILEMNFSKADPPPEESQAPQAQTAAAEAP
HiBit-WIZ fusion protein, sequence (Q96SW2 whole entry, the tested form may be a part): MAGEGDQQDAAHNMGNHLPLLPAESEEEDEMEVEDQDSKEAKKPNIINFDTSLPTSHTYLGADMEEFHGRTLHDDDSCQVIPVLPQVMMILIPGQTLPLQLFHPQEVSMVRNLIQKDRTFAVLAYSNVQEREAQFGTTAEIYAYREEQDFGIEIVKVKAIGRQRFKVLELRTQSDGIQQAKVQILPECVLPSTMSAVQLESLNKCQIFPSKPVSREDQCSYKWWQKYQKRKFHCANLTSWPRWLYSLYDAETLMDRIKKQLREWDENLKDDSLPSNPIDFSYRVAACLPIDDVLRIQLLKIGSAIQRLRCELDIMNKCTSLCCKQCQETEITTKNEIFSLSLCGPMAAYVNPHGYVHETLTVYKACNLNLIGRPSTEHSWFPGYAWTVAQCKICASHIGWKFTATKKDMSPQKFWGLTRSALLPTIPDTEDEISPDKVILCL
HiBit-WIZ fusion protein, sequence (Q16531 whole entry partner, the tested form may be a part): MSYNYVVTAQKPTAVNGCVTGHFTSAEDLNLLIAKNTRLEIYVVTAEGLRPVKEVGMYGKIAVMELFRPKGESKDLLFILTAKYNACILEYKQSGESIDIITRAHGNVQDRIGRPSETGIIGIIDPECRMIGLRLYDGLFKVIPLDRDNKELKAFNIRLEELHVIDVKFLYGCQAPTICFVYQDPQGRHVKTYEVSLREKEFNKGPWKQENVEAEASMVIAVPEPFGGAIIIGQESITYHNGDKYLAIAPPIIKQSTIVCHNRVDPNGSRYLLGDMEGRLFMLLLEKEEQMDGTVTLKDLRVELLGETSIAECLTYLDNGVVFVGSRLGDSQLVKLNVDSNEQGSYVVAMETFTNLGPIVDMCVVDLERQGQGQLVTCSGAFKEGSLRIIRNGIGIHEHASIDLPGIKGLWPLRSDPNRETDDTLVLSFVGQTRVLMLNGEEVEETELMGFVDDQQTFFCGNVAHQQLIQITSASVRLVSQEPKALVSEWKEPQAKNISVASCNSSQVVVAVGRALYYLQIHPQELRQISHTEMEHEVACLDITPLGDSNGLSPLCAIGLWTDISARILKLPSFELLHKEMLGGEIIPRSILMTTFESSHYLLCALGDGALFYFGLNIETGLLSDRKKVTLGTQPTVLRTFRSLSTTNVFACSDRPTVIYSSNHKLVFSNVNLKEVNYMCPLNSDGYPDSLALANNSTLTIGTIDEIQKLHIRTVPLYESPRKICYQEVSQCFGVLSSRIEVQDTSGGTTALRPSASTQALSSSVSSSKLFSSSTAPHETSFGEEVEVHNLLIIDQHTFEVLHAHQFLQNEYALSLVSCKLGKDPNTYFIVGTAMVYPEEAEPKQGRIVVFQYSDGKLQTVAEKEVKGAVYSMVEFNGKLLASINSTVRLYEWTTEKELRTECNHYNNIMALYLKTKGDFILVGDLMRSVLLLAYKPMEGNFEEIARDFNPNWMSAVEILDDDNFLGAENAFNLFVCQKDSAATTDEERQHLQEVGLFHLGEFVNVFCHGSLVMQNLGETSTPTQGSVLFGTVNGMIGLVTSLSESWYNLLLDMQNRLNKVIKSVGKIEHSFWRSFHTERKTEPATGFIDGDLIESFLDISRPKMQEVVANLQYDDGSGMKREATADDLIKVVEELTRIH

Take `CCN1CCCC(C)(C)C1COc1ccc2c(c1)CN(C1CCC(=O)NC1=O)C2=O` (single isomer, unassigned) [Compound I-17, 3-(5-((1-ethyl-3,3-dimethylpiperidin-2-yl)methoxy)-1-oxoisoindolin-2-yl)piperidine-2,6-dione]: the Dmax came out at 26.4%, the remaining activity at up to 25 µM was found to be 73.6% and the DC50 is above 25000 nM.
For the compound `CCN1CCCC(C)(C)C1COc1ccc2c(c1)CN(C1CCC(=O)NC1=O)C2=O` (single isomer, unassigned) [Compound I-19, 3-(5-((1-ethyl-3,3-dimethylpiperidin-2-yl)methoxy)-1-oxoisoindolin-2-yl)piperidine-2,6-dione], the “% degradation of WIZ (100-Amax)” value worked out at 34.7%, the “WIZ Amax” value is on record as 65.3% and the DC50 is above 25000 nM.
Consider `CCN1CCC[C@H]1C(C)Oc1ccc2c(c1)CN(C1CCC(=O)NC1=O)C2=O` (single isomer, unassigned) [Compound I-25], for which the “% degradation of WIZ (100-Amax)” value is listed as 46.6%, the “WIZ Amax” value is 53.4% and the DC50 was above 25000 nM.
In the case of `CCN1CCC[C@H]1C(C)Oc1ccc2c(c1)CN(C1CCC(=O)NC1=O)C2=O` (single isomer, unassigned) [Compound I-27], the “% degradation of WIZ (100-Amax)” value was found to be 15.6%, the “WIZ Amax” value is listed as 84.4% and the DC50 is above 25000 nM.
Turning to `CCC(Oc1ccc2c(c1)CN(C1CCC(=O)NC1=O)C2=O)[C@@H]1CCCN1` (single isomer, unassigned) [Compound I-44], the “% degradation of WIZ (100-Amax)” value turned out to be 10.3%, the remaining activity at up to 25 µM came to 89.7% and the DC50 was above 25000 nM.
For the compound `CCC(Oc1ccc2c(c1)CN(C1CCC(=O)NC1=O)C2=O)[C@@H]1CCCN1` (single isomer, unassigned) [Compound I-45], the “% degradation of WIZ (100-Amax)” value came out at 21.3%, the “WIZ Amax” value is 78.7% and the DC50 is above 25000 nM.
Consider `O=C1CCC(N2Cc3cc(OC[C@H]4CCCCN4CC4CCOC4)ccc3C2=O)C(=O)N1` (single isomer, unassigned) [Compound I-211], for which the Dmax is 53.9%, the remaining activity at up to 25 µM came out at 46.1% and the DC50 was 150 nM.
As for `O=C1CCC(N2Cc3cc(OC[C@H]4CCCCN4CC4CCOC4)ccc3C2=O)C(=O)N1` (single isomer, unassigned) [Compound I-213], the “% degradation of WIZ (100-Amax)” value is given as 55.68%, the “WIZ Amax” value is given as 44.32% and the DC50 was 120 nM.
In the case of `COC1CCC(CN2CCCCC2C(C)Oc2ccc3c(c2)CN(C2CCC(=O)NC2=O)C3=O)CC1` (single isomer, unassigned) [Compound I-219, 3-(5-(1-(1-((4-methoxycyclohexyl)methyl)piperidin-2-yl)ethoxy)-1-oxoisoindolin-2-yl)piperidine-2,6-dione], the Dmax is 73.9%, the remaining activity at up to 25 µM came out at 26.1% and the DC50 worked out at 1400 nM.
As for `CCN1CCC(F)(F)CC1COc1ccc2c(c1)CN(C1CCC(=O)NC1=O)C2=O` (single isomer, unassigned) [I-252 (Isomer 1), 3-(5-((1-ethyl-4,4-difluoropiperidin-2-yl)methoxy)-1-oxoisoindolin-2-yl)piperidine-2,6-dione], the “% degradation of WIZ (100-Amax)” value stood at 58.1%, the “WIZ Amax” value was found to be 41.9% and the DC50 was 50 nM.
Turning to `CCN1CCC(F)(F)CC1COc1ccc2c(c1)CN(C1CCC(=O)NC1=O)C2=O` (single isomer, unassigned) [I-252 (Isomer 2), 3-(5-((1-ethyl-4,4-difluoropiperidin-2-yl)methoxy)-1-oxoisoindolin-2-yl)piperidine-2,6-dione], the “% degradation of WIZ (100-Amax)” value worked out at 77.1%, the “WIZ Amax” value was 22.9% and the DC50 came to 11 nM.
Take `CCN1CCC(F)(F)CC1COc1ccc2c(c1)CN(C1CCC(=O)NC1=O)C2=O` (single isomer, unassigned) [I-252 (Isomer 3), 3-(5-((1-ethyl-4,4-difluoropiperidin-2-yl)methoxy)-1-oxoisoindolin-2-yl)piperidine-2,6-dione]: the “% degradation of WIZ (100-Amax)” value was 55.1%, the “WIZ Amax” value is given as 44.9% and the DC50 was 45 nM.
Turning to `CCN1C2CCC(C2)C1COc1ccc2c(c1)CN(C1CCC(=O)NC1=O)C2=O` (single isomer, unassigned) [I-255 (Isomer 1), 3-(5-((endo-2-ethyl-2-azabicyclo[2.2.1]heptan-3-yl)methoxy)-1-oxoisoindolin-2-yl)piperidine-2,6-dione], the “% degradation of WIZ (100-Amax)” value is 73.2%, the “WIZ Amax” value came out at 26.8% and the DC50 worked out at 12 nM.
In the case of `CCN1C2CCC(C2)C1COc1ccc2c(c1)CN(C1CCC(=O)NC1=O)C2=O` (single isomer, unassigned) [I-255 (Isomer 2), 3-(5-((endo-2-ethyl-2-azabicyclo[2.2.1]heptan-3-yl)methoxy)-1-oxoisoindolin-2-yl)piperidine-2,6-dione], the “% degradation of WIZ (100-Amax)” value was found to be 28.8%, the “WIZ Amax” value turned out to be 71.2% and the DC50 came out at 98 nM.
Take `CCN1C2CCC(C2)C1COc1ccc2c(c1)CN(C1CCC(=O)NC1=O)C2=O` (single isomer, unassigned) [I-255 (Isomer 3), 3-(5-((endo-2-ethyl-2-azabicyclo[2.2.1]heptan-3-yl)methoxy)-1-oxoisoindolin-2-yl)piperidine-2,6-dione]: the “% degradation of WIZ (100-Amax)” value stood at 26.5%, the “WIZ Amax” value was found to be 73.5% and the DC50 stood at 360 nM.
As to `CCN1C2CCC(C2)C1COc1ccc2c(c1)CN(C1CCC(=O)NC1=O)C2=O` (single isomer, unassigned) [I-255 (Isomer 4), 3-(5-((endo-2-ethyl-2-azabicyclo[2.2.1]heptan-3-yl)methoxy)-1-oxoisoindolin-2-yl)piperidine-2,6-dione], the “% degradation of WIZ (100-Amax)” value is listed as 73.0%, the “WIZ Amax” value was determined as 27.0% and the DC50 came to 34 nM.
Take `COc1ccc(CN2CCCC[C@H]2COc2ccc3c(c2)CN(C2CCC(=O)NC2=O)C3=O)cc1F` (stereo partly drawn) [Compound I-50a]: the Dmax is 52.2%, the remaining activity at up to 25 µM was determined as 47.8% and the DC50 is above 25000 nM.
Consider `O=C1CCC(N2Cc3cc(OC[C@@H]4CCCCN4Cc4cccc(N5CCCC5)c4)ccc3C2=O)C(=O)N1` (stereo partly drawn) [Compound I-50aa], for which the Dmax stood at 95.1%, the remaining activity at up to 25 µM was found to be 4.9% and the DC50 was 412 nM.
The matching figures for `O=C1CCC(N2Cc3cc(OC[C@@H]4CCCCN4Cc4ccccc4OCCN4CCOCC4)ccc3C2=O)C(=O)N1` (stereo partly drawn) [Compound I-50ab]: 50.8%, 49.2% and above 25000 nM.
For `Cc1nc[nH]c1CN1CCCC[C@H]1COc1ccc2c(c1)CN(C1CCC(=O)NC1=O)C2=O` (stereo partly drawn) [Compound I-50ac], the Dmax was determined as 92.3%, the remaining activity at up to 25 µM was determined as 7.7% and the DC50 is 578 nM.
Take `COc1cc2[nH]nc(CN3CCCC[C@H]3COc3ccc4c(c3)CN(C3CCC(=O)NC3=O)C4=O)c2cc1OCc1ccccc1` (stereo partly drawn) [Compound I-50ae]: the Dmax turned out to be 53.1%, the remaining activity at up to 25 µM stood at 46.9% and the DC50 was above 25000 nM.
For `O=C1CCC(N2Cc3cc(OC[C@@H]4CCCCN4Cc4n[nH]c5ccc(Oc6cccnc6)cc45)ccc3C2=O)C(=O)N1` (stereo partly drawn) [Compound I-50af], the Dmax was found to be 57.2%, the remaining activity at up to 25 µM is 42.8% and the DC50 came out at 21100 nM.
For the compound `Cn1cncc1CN1CCCC[C@H]1COc1ccc2c(c1)CN(C1CCC(=O)NC1=O)C2=O` (stereo partly drawn) [Compound I-50ag], the Dmax was found to be 62.8%, the remaining activity at up to 25 µM was determined as 37.2% and the DC50 came out at 15200 nM.
As to `Cn1nnc2cc(CN3CCCC[C@H]3COc3ccc4c(c3)CN(C3CCC(=O)NC3=O)C4=O)ccc21` (stereo partly drawn) [Compound I-50ah], the Dmax was 44.4%, the remaining activity at up to 25 µM is 55.6% and the DC50 was above 25000 nM.
As to `O=C1CCC(N2Cc3cc(OC[C@@H]4CCCCN4Cc4ccc(-n5nccn5)cc4)ccc3C2=O)C(=O)N1` (stereo partly drawn) [Compound I-50ai], the Dmax came to 77.8%, the remaining activity at up to 25 µM amounted to 22.2% and the DC50 was found to be 591 nM.
Turning to `O=C1CCC(N2Cc3cc(OC[C@@H]4CCCCN4CC4CCN(Cc5ccccc5)CC4)ccc3C2=O)C(=O)N1` (stereo partly drawn) [Compound I-50aj], the Dmax came to 99%, the remaining activity at up to 25 µM worked out at 1% and the DC50 came out at 16 nM.
The like results for `O=C1CCC(N2Cc3cc(OC[C@@H]4CCCCN4Cc4ccc(N5CCCC5)nc4)ccc3C2=O)C(=O)N1` (stereo partly drawn) [Compound I-50ak] were, in that order, 81.3%, 18.7% and 347 nM.
The like results for `O=C1CCC(N2Cc3cc(OC[C@@H]4CCCCN4Cc4c[nH]cn4)ccc3C2=O)C(=O)N1` (stereo partly drawn) [Compound I-50al] were, in that order, 54.1%, 45.9% and above 25000 nM.
Regarding `O=C1CCC(N2Cc3cc(OC[C@@H]4CCCCN4Cc4ccccc4OCC(=O)N4CCCCC4)ccc3C2=O)C(=O)N1` (stereo partly drawn) [Compound I-50am], the Dmax stood at 40%, the remaining activity at up to 25 µM came to 60% and the DC50 was above 25000 nM.
Consider `O=C1CCC(N2Cc3cc(OC[C@H]4CCCCN4Cc4cn[nH]c4)ccc3C2=O)C(=O)N1` (stereo partly drawn) [Compound I-50an], for which the Dmax was found to be 82.2%, the remaining activity at up to 25 µM came out at 17.8% and the DC50 was 1710 nM.
As to `Cc1noc(C)c1CN1CCCC[C@H]1COc1ccc2c(c1)CN(C1CCC(=O)NC1=O)C2=O` (stereo partly drawn) [Compound I-50ao], the Dmax was found to be 96.8%, the remaining activity at up to 25 µM is 3.2% and the DC50 is 89 nM.
